This test concerns L1210 leukemia ip in BDF1 mice, survival T/C. Nature of the test: NCI In Vivo Anticancer Drug Screen. Data for tumor model L1210 Leukemia (intraperitoneal) in B6D2F1 (BDF1) mice. To be noted: higher = longer survival. The essentials: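 Transplantable tumor model; survival measured in treated vs vehicle control mice. Value = treated/control.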
Setting [1] is: endpoint: mean survival time, dose: 100.0 mg/kg/injection, schedule: Q01DX001 (ip), vehicle: saline.
The mark [2] stands for this setting: endpoint: mean survival time, dose: 200.0 mg/kg/injection, schedule: Q01DX001 (ip), vehicle: saline.
Where [3] appears, read: endpoint: mean survival time, dose: 400.0 mg/kg/injection, schedule: Q01DX001 (ip), vehicle: saline.

This note sets out measurements from PubChem BioAssay AID248 (DTP/NCI, 2004).

Inconclusive results and toxic doses are left out.

`C[C@@H](CN1CC(=O)NC(=O)C1)N1CC(=O)NC(=O)C1`: the T/C by setting is: (endpoint: mean survival time, dose: 25.0 mg/kg/injection, schedule: Q04DX003 (ip), vehicle: saline) 116 % of control; (endpoint: mean survival time, dose: 25.0 mg/kg/injection, schedule: Q04DX003 (ip), vehicle: water) 111 % of control; (endpoint: mean survival time, dose: 32.0 mg/kg/injection, schedule: Q04DX003 (oral), vehicle: saline) 117 % of control; (endpoint: mean survival time, dose: 50.0 mg/kg/injection, schedule: Q04DX003 (ip), vehicle: saline) 116 % of control; (endpoint: mean survival time, dose: 50.0 mg/kg/injection, schedule: Q04DX003 (ip), vehicle: water) 100 % of control; (endpoint: mean survival time, dose: 64.0 mg/kg/injection, schedule: Q04DX003 (oral), vehicle: saline) 151 % of control. The T/C (endpoint: mean survival time, dose: 100.0 mg/kg/injection, schedule: Q04DX003 (ip), vehicle: saline) is 115 % of control; the T/C (endpoint: mean survival time, dose: 128.0 mg/kg/injection, schedule: Q04DX003 (oral), vehicle: saline) is 180 % of control; the T/C (endpoint: mean survival time, dose: 256.0 mg/kg/injection, schedule: Q04DX003 (oral), vehicle: saline) was 180 % of control; the T/C (endpoint: mean survival time, dose: 400.0 mg/kg/injection, schedule: Q04DX003 (ip), vehicle: saline) is 150 % of control; the T/C (endpoint: mean survival time, dose: 400.0 mg/kg/injection, schedule: Q04DX003 (ip), vehicle: water) was 158 % of control; the T/C (endpoint: mean survival time, dose: 512.0 mg/kg/injection, schedule: Q04DX003 (oral), vehicle: saline) was 155 % of control. The T/C by setting is: (endpoint: mean survival time, dose: 800.0 mg/kg/injection, schedule: Q04DX003 (ip), vehicle: saline) 187 % of control; (endpoint: median survival time, dose: 8.0 mg/kg/injection, schedule: Q01DX009 (sc), vehicle: saline) 118 % of control; (endpoint: median survival time, dose: 8.0 mg/kg/injection, schedule: Q03HX008 (ip), vehicle: saline) 152 % of control; (endpoint: median survival time, dose: 8.0 mg/kg/injection, schedule: Q03HX016 (ip), vehicle: saline) 173 % of control; (endpoint: median survival time, dose: 8.0 mg/kg/injection, schedule: Q03HX024 (ip), vehicle: saline) 263 % of control; (endpoint: median survival time, dose: 16.0 mg/kg/injection, schedule: Q01DX009 (sc), vehicle: saline) 119 % of control. The T/C (endpoint: median survival time, dose: 16.0 mg/kg/injection, schedule: Q03HX008 (ip), vehicle: saline) is 152 % of control; the T/C (endpoint: median survival time, dose: 16.0 mg/kg/injection, schedule: Q03HX016 (ip), vehicle: saline) was 186 % of control; the T/C (endpoint: median survival time, dose: 16.0 mg/kg/injection, schedule: Q03HX024 (ip), vehicle: saline) was 300 % of control; the T/C (endpoint: median survival time, dose: 32.0 mg/kg/injection, schedule: Q03HX008 (ip), vehicle: saline) is 155 % of control; the T/C (endpoint: median survival time, dose: 32.0 mg/kg/injection, schedule: Q03HX016 (ip), vehicle: saline) was 193 % of control; the T/C (endpoint: median survival time, dose: 32.0 mg/kg/injection, schedule: Q03HX024 (ip), vehicle: saline) is 113 % of control. The T/C was 108 % of control (endpoint: median survival time, dose: 64.0 mg/kg/injection, schedule: Q01DX001 (ip), vehicle: saline); 159 % of control (endpoint: median survival time, dose: 64.0 mg/kg/injection, schedule: Q01DX009 (sc), vehicle: saline); 158 % of control (endpoint: median survival time, dose: 64.0 mg/kg/injection, schedule: Q03HX008 (ip), vehicle: saline); 94 % of control (endpoint: median survival time, dose: 64.0 mg/kg/injection, schedule: Q03HX024 (ip), vehicle: saline); 110 % of control (endpoint: median survival time, dose: 64.0 mg/kg/injection, schedule: Q04DX003 (ip), vehicle: saline); 106 % of control (endpoint: median survival time, dose: 64.0 mg/kg/injection, schedule: Q04DX003 (sc), vehicle: saline). The T/C was 104 % of control (endpoint: median survival time, dose: 64.0 mg/kg/injection, schedule: Q08DX002 (ip), vehicle: saline); 106 % of control (endpoint: median survival time, dose: 128.0 mg/kg/injection, schedule: Q01DX001 (ip), vehicle: saline); 152 % of control (endpoint: median survival time, dose: 128.0 mg/kg/injection, schedule: Q03HX008 (ip), vehicle: saline); 107 % of control (endpoint: median survival time, dose: 128.0 mg/kg/injection, schedule: Q03HX016 (ip), vehicle: saline); 86 % of control (endpoint: median survival time, dose: 128.0 mg/kg/injection, schedule: Q03HX024 (ip), vehicle: saline); 118 % of control (endpoint: median survival time, dose: 128.0 mg/kg/injection, schedule: Q04DX003 (ip), vehicle: saline). In addition, the T/C by setting is: (endpoint: median survival time, dose: 128.0 mg/kg/injection, schedule: Q04DX003 (sc), vehicle: saline) 109 % of control; (endpoint: median survival time, dose: 256.0 mg/kg/injection, schedule: Q01DX001 (ip), vehicle: saline) 109 % of control; (endpoint: median survival time, dose: 256.0 mg/kg/injection, schedule: Q04DX003 (ip), vehicle: saline) 118 % of control; (endpoint: median survival time, dose: 256.0 mg/kg/injection, schedule: Q08DX002 (ip), vehicle: saline) 121 % of control; (endpoint: median survival time, dose: 512.0 mg/kg/injection, schedule: Q01DX001 (ip), vehicle: saline) 111 % of control; (endpoint: median survival time, dose: 512.0 mg/kg/injection, schedule: Q04DX003 (sc), vehicle: saline) 182 % of control. The T/C is 186 % of control (endpoint: median survival time, dose: 1024.0 mg/kg/injection, schedule: Q04DX003 (ip), vehicle: saline); 236 % of control (endpoint: median survival time, dose: 1024.0 mg/kg/injection, schedule: Q04DX003 (sc), vehicle: saline); 150 % of control (endpoint: median survival time, dose: 1024.0 mg/kg/injection, schedule: Q08DX002 (ip), vehicle: saline).
On to `Nc1ccc(I)cc1C(=O)O`, for which the T/C is, setting by setting: (endpoint: mean survival time, dose: 50.0 mg/kg/injection, schedule: Q01DX001 (ip), vehicle: saline) 103 % of control; under setting [1], 103 % of control; under setting [2], 101 % of control; under setting [3], 97 % of control.
Take `C=CCc1ccc(OC(=O)Nc2ccc(S(=O)(=O)N3CCCCC3)cc2)c(OC)c1`: the T/C was 98 % of control (endpoint: mean survival time, dose: 12.5 mg/kg/injection, schedule: Q01DX001 (ip), vehicle: other); 90 % of control (endpoint: mean survival time, dose: 25.0 mg/kg/injection, schedule: Q01DX001 (ip), vehicle: other); 90 % of control (endpoint: mean survival time, dose: 50.0 mg/kg/injection, schedule: Q01DX001 (ip), vehicle: other).
For `C=CCOC(=O)Nc1ccc(S(=O)(=O)NC2CCCCC2)cc1`, the T/C reads like this: under setting [1], 92 % of control; under setting [2], 94 % of control; under setting [3], 97 % of control.
Take `Nc1nc(=O)n(C2OC(CO)C(O)C2O)c2nc(I)[nH]c12` (configuration not stated): the T/C (endpoint: mean survival time, dose: 50.0 mg/kg/injection, schedule: Q01DX005 (ip), vehicle: saline) is 100 % of control and the T/C (endpoint: mean survival time, dose: 100.0 mg/kg/injection, schedule: Q01DX005 (ip), vehicle: saline) was 107 % of control.
